11 compounds from article PMC9056950, “Synthesis and biochemical evaluation of cephalosporin analogues equipped with chemical tethers” (RSC Advances, 2020) can be followed below.

For assay [1], the system named is T1, E. coli.
T1 construct: BW25113
Details: species or system Escherichia coli BW25113; broth growth inhibition, OD600, fitted MIC from dose curve, LB, 37 C. Conditions: 16 h; inhibitor. Here is the method: Stock solutions of each compound were prepared in 50% DMSO/water at ×100 the final concentration. In a 96-well plate, 2 μL of the test compounds were added to each well. Each plate included the positive control (750 μg mL^−1 chloramphenicol), the negative control (50% DMSO/water) and media only wells. To each test well was then added 198 μL of the required bacteria stock (OD 0.05). E. coli assays were carried out using LB broth, S. aureus were carried out using tryptic soy broth (TSB). Plates were incubated at 37 °C and the OD600 was measured (Epoch 2 Microplate Spectrophotometer, BioTek) every 30 min over a 17 h period. Tests were carried out in triplicate, the background absorbance was removed using reference wells, and the averages were determined. Dose curves were plotting using the OD600 after 16 h growth vs. compound concentration. MICs were defined as the minimum concentration of compound at which no significant growth was observed after 16 h incubation. MIC values were determined using GraphPad Prism (version 8.3.0). […] Further testing was carried out […] to determine whether the tethered compounds had any antibacterial activity. Table 2 summarises the MIC values determined for 1–12, MBC50 data is included in the ESI. ^†

Assay [2] deals with T2, PBP3 (Escherichia coli, UniProt P0AD68).
T2 construct: gene ftsI
T2 sequence (P0AD68 44-588): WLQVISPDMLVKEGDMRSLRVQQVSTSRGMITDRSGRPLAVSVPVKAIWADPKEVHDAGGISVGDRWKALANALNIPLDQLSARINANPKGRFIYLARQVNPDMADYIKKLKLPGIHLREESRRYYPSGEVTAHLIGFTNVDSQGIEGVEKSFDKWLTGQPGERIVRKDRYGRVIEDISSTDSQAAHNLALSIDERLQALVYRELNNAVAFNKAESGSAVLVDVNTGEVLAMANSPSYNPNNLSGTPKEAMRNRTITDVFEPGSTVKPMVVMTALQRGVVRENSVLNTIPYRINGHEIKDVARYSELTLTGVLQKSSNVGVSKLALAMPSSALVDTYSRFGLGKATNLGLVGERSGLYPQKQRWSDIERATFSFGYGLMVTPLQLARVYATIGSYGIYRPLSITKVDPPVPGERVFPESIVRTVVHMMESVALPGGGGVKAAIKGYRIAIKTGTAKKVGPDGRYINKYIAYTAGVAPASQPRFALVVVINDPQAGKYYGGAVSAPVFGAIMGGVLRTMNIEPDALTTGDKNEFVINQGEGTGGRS
Put plainly: thermal shift, ligand titration. It is filed as binding. Conditions: 2 μM PBP3, 25 min at room temperature before melt 35-70 °C; approximate affinity, not a Kd.

In assay [3] the target is T2, PBP3. Put plainly: biochemical. On the set-up: Thermal shift assay, Protein Thermal Shift dye, 3 uM E. coli PBP3, change in melting temperature. As to conditions: read-out: Average DTm/°C. The method, then: The thermal shift assay was carried out using the Protein Thermal Shift™ assay kit (Applied Biosystems). 3 μM of purified E. coli PBP3 was incubated with the β-lactam analogues at 300 μM concentration in a mixture containing the Protein Thermal Shift™ Dye. The samples were then heated in a StepOnePlus™ Real-Time PCR System from 25 to 95 °C at a rate of 1 °C min^−1. Tests were carried out in triplicate and the averages plotted as the negative first derivative vs. temperature. Reference wells, i.e. solutions consisting only of only PBP3 with dye, PBP3 only, and dye only, were used as controls. Melting temperature (Tm) values were determined with and without each compound, and the change in melting temperature (ΔTm) was obtained, Fig. 2. The thermal shift assay with PBP4 was carried out using the protocol described for PBP3, with the follow deriviatisation: 500 nM of purified Bacillus subtilis PBP4 was incubated with 50 μM of the β-lactam analogues. A thermal shift assay was used to investigate the binding of the cephalexin analogues to the therapeutic target, PBP, in vitro. This assay provides a fast and inexpensive method of detecting a ligand binding to a protein of interest. Briefly, the protein is gradually heated in the presence of a fluorescent dye that binds non-specifically to the hydrophobic surfaces. […] A change in the melting temperature (Tm) when the protein is heated in the presence of a ligand, indicates a protein–ligand interaction. […] The PBPs can be divided into two main categories: high molecular mass (HMM) and low molecular mass (LMM).[13] PBP3 was chosen as a representative HMM PBP, and PBP4 as a representative LMM PBP. Cephalexin (1) has been previously reported to show good binding affinities for both PBP3 and PBP4.[14] Penicillin (11) and cefpodoxime (12) were included as positive controls. A truncated version of the ftsI gene formed of residues W44-S588, encoding only the soluble domain, was amplified from E. coli BW25113. The resulting construct was inserted into the vector pBADnLIC2005,[40] introducing an N-terminal deca-histidine tag when expressed. The resulting vector was transformed into E. coli MC1061 for expression. Cultures for protein expression were grown in 1 L of Luria–Bertani (LB) broth at 37 °C on an orbital shaker. Expression was induced by addition of 0.01% L-arabinose during mid-log phase of growth. Cultures were further incubated for 16 h at 20 °C, then the cells were harvested by centrifugation. Cell pellets were resuspended in 50 mM KPi pH 7.8, 200 mM NaCl, 10 mM imidazole, 20% glycerol with 1 mM [compound left out] followed by sonication. The lysate was clarified by centrifugation before loading onto a HisTrap HF column (GE Healthcare). To remove any pre-bound ligands, refolding purification was performed by initially washing with the protein unfolding buffer [2 M guanidine HCl, 50 mM KPi (pH 7.8), 200 mM NaCl, 20% glycerol, and 20 mM imidazole] and then performing a gradient wash to the protein refolding buffer [50 mM KPi (pH 7.8), 200 mM NaCl, 20% glycerol, and 20 mM imidazole] before the elution of the protein using the elution buffer [50 mM KPi (pH 7.8), 200 mM NaCl, 20% glycerol, and 500 mM imidazole]. The eluted protein was buffer-exchanged to the buffer 50 mM KPi (pH 7.8), 200 mM NaCl using a HisTrap Desalting (GE Healthcare) column.

Assay [4] concerns the target T2, PBP3. In words: thermal shift (Protein Thermal Shift dye). The format is binding. Conditions: 3 μM PBP3, 300 μM ligand, 25-95 °C at 1 °C/min; Tm increased.

The structures appear in SMILES notation. Converted amounts (≈) assume the structure as drawn.

In the case of `CC1=C(C(=O)O)N2C(=O)[C@@H](NC(=O)[C@H](N)c3ccccc3)[C@H]2SC1` [compound 1, cephalexin], the “MIC (E. coli, best-fit)” value in assay [1] was found to be 94.91 µM (≈ 33 µg/mL). Besides, in assay [2], the “equivalents required for >Tm1/2” value is given as 75 equivalents. Moreover, the ΔTm at 300 µM in assay [3] was 1.61 °C.
Consider `CC1=C(C(=O)O)N2C(=O)[C@@H](NC(=O)[C@H](NC(=O)COCC(=O)NCCOCCOCCOCCOCCNC(=O)CCCCCN3C(=O)C=CC3=O)c3ccccc3)[C@H]2SC1` [compound 2, (6R,7R)-7-((R)-30-(2,5-Dioxo-2,5-dihydro-1H-pyrrol-1-yl)-4,8,25-trioxo-2-phenyl-6,12,15,18,21-pentaoxa-3,9,24-triazatriacontanamido)-3-methyl-8-oxo-5-thia-1-azabicyclo[4.2.0]oct-2-ene-2-carboxylic acid], for which the ΔTm result in assay [4] is recorded as “all of the analogues tested caused an increase in the Tm with PBP3”. In addition, the ΔTm at 300 µM in assay [3] was 4.72 °C.
Taken in the same sequence, the figures for `CC1=C(C(=O)O)N2C(=O)[C@@H](NC(=O)[C@H](NC(=O)CCCCCN3C(=O)C=CC3=O)c3ccccc3)[C@H]2SC1` [compound 3, (6R,7R)-7-((R)-2-(6-(2,5-dioxo-2,5-dihyrdo-1H-pyrrol-1-yl)hexanamido)-2-phenylacetamido)-3-methyl-8-oxo-5-thia-1-azabicyclo[4.2.0]oct-2-ene-2-carboxylic acid] were “all of the analogues tested caused an increase in the Tm with PBP3” and 3 °C.
The corresponding values for `C#CCCC(=O)N[C@@H](C(=O)N[C@@H]1C(=O)N2C(C(=O)O)=C(C)CS[C@H]12)c1ccccc1` [compound 4, (6R,7R)-3-Methyl-8-oxo-7-[(2R)-2-(pent-4-ynamido)-2-phenylacetamido]-5-thia-1-azabicyclo[4.2.0]oct-2-ene-2-carboxylic acid] are “all of the analogues tested caused an increase in the Tm with PBP3” and 3.01 °C.
The corresponding values for `CC1=C(C(=O)O)N2C(=O)[C@@H](NC(=O)[C@H](NC(=O)CCCCC3CCSS3)c3ccccc3)[C@H]2SC1` (stereo partly drawn) [compound 5, (6R,7R)-7-[(2R)-2-[5-(1,2-Dithiolan-3-yl)pentanamido]-2-phenylacetamido]-3-methyl-8-oxo-5-thia-1-azabicyclo[4.2.0]oct-2-ene-2-carboxylic acid] are “all of the analogues tested caused an increase in the Tm with PBP3” and 3.01 °C.
For `CC1=C(C(=O)O)N2C(=O)[C@@H](NC(=O)[C@H](NC(=O)CCCC(=O)ON3C(=O)CCC3=O)c3ccccc3)[C@H]2SC1` [compound 6, (6R,7R)-7-[(2R)-2-{5-[(2,5-Dioxopyrrolidin-1-yl)oxy]-5-oxopentanamido}-2-phenylacetamido]-3-methyl-8-oxo-5-thia-1-azabicyclo[4.2.0]oct-2-ene-2-carboxylic acid], the ΔTm entry in assay [4] is reported as “all of the analogues tested caused an increase in the Tm with PBP3”. Moreover, the ΔTm at 300 µM in assay [3] worked out at 3.21 °C.
Take `CC1=C(C(=O)O)N2C(=O)[C@@H](NC(=O)[C@H](NC(=O)CCCC(=O)O)c3ccccc3)[C@H]2SC1` [compound 7, (6R,7R)-7-[(2R)-2-(4-Carboxybutanamido)-2-phenylacetamido]-3-methyl-8-oxo-5-thia-1-azabicyclo[4.2.0]oct-2-ene-2-carboxylic acid]: the ΔTm result in assay [4] is “all of the analogues tested caused an increase in the Tm with PBP3”. Also, in assay [3], the ΔTm at 300 µM is 3.6 °C.
Taken in the same sequence, the figures for `CC(=O)N[C@@H](C(=O)N[C@@H]1C(=O)N2C(C(=O)O)=C(C)CS[C@H]12)c1ccccc1` [compound 8, (6R,7R)-7-[(2R)-2-Acetamido-2-phenylacetamido]-3-methyl-8-oxo-5-thia-1-azabicyclo[4.2.0]oct-2-ene-2-carboxylic acid] were “all of the analogues tested caused an increase in the Tm with PBP3” and 3.01 °C.
The corresponding values for `CC1=C(C(=O)O)N2C(=O)[C@@H](NC(=O)[C@H](NC(=O)OC(C)(C)C)c3ccccc3)[C@H]2SC1` [compound 9, (6R,7R)-7-[(2R)-2-{[(Tert-butoxy)carbonyl]amino}-2-phenylacetamido]-3-methyl-8-oxo-5-thia-1-azabicyclo[4.2.0]oct-2-ene-2-carboxylic acid] are “all of the analogues tested caused an increase in the Tm with PBP3” and 1.61 °C.
Consider `CC1=C(C(=O)O)N2C(=O)[C@@H](NC(=O)[C@H](NC(=O)CCCCN)c3ccccc3)[C@H]2SC1` [compound 10, (6R,7R)-7-[(2R)-2-(5-Aminopentanamido)-2-phenylacetamido]-3-methyl-8-oxo-5-thia-1-azabicyclo[4.2.0]oct-2-ene-2-carboxylic acid], for which, in assay [4], the ΔTm entry was “all of the analogues tested caused an increase in the Tm with PBP3”. Further, the ΔTm at 300 µM in assay [3] was 2.81 °C.
As to `COCC1=C(C(=O)O)N2C(=O)[C@@H](NC(=O)/C(=N\OC)c3csc(N)n3)[C@H]2SC1` [compound 12, cefpodoxime], the “MIC (E. coli, best-fit)” value in assay [1] turned out to be 7.744 µM (≈ 3.31 µg/mL). Moreover, the ΔTm at 300 µM in assay [3] was 4.42 °C.
